Literature values, collected in patent US20050053658A1, “Extended release systems for macrolide antibiotics” (priority 2003, published 2005).

- water solubility: poorly water soluble
SMILES: CC[C@H]1OC(=O)[C@H](C)[C@@H](O[C@H]2C[C@@](C)(OC)[C@@H](O)[C@H](C)O2)[C@H](C)[C@@H](O[C@@H]2O[C@H](C)C[C@H](N(C)C)[C@H]2O)[C@](C)(OC)C[C@@H](C)C(=O)[C@H](C)[C@@H](O)[C@]1(C)O [Clarithromycin]
